Test systems include NCI/ADR-RES ovarian; OVCAR-5 ovarian; SN12C renal; OVCAR-4 ovarian; NCI-H226 lung; U251 CNS; CAKI-1 renal; SW-620 colon; OVCAR-3 ovarian; SNB-19 CNS; M14 melanoma; 786-0 renal; HCT-116 colon; PC-3 prostate; SK-MEL-28 melanoma; SR leukemia; RXF 393 renal; UACC-257 melanoma; HCT-15 colon; NCI-H522 lung.
Assay in all cases: growth of human tumour cells (NCI), 48 h

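Test compounds were applied to cells in 96-well plates for 48 hours at 5 doses. TGI: concentration producing complete growth inhibition.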

On to `CC(=O)OC[C@@H](OC(C)=O)[C@@H](OC(C)=O)[C@H]1OC[C@@H]2C[C@H]([C@H]1OC(C)=O)N(Cc1ccccc1)O2`, for which the TGI in the assay on NCI/ADR-RES ovarian, in the assay with OVCAR-5 ovarian, with SN12C renal, in the assay with OVCAR-4 ovarian, in the assay with NCI-H226 lung and with U251 CNS was greater than 100 µM each time. Moreover, the TGI in the assay on CAKI-1 renal, in the assay with SW-620 colon, in the assay with OVCAR-3 ovarian, in the assay on SNB-19 CNS, with M14 melanoma and in the assay with 786-0 renal was greater than 100 µM throughout. Also, the TGI in the assay with HCT-116 colon, in the assay with PC-3 prostate, with SK-MEL-28 melanoma, with SR leukemia, with RXF 393 renal and in the assay with UACC-257 melanoma was greater than 100 µM in each case.

As to `CCN(CC)CCC(=O)c1ccc(Oc2ccccc2)cc1`, the TGI with NCI/ADR-RES ovarian is 56.4 µM; in the assay on OVCAR-5 ovarian, 46.4 µM; in the assay with SN12C renal it was 31.4 µM; in the assay with OVCAR-4 ovarian, 76.9 µM; in the assay on NCI-H226 lung it was greater than 100 µM; in the assay with U251 CNS, 32.3 µM. For the same molecule, the TGI in the assay with CAKI-1 renal was 30.7 µM; in the assay with SW-620 colon it was 31.3 µM; in the assay on HCT-15 colon it was 35.6 µM; in the assay with OVCAR-3 ovarian, 45.3 µM; in the assay with SNB-19 CNS, 38.2 µM; with M14 melanoma it was greater than 100 µM. Also, the TGI is 29.3 µM in the assay on 786-0 renal; 36.1 µM in the assay with HCT-116 colon; greater than 100 µM in the assay with PC-3 prostate; 32.5 µM in the assay with SK-MEL-28 melanoma; greater than 100 µM in the assay on SR leukemia; 36.4 µM with RXF 393 renal. In the assay on UACC-257 melanoma, the TGI stood at 33.5 µM.

Turning to `[O-]c1c[n+](CC[n+]2cc([O-])on2)no1`, the TGI in the assay with NCI/ADR-RES ovarian, in the assay on OVCAR-5 ovarian, in the assay with SN12C renal, in the assay on OVCAR-4 ovarian, in the assay with U251 CNS and with CAKI-1 renal was greater than 100 µM throughout. Also, the TGI in the assay on SW-620 colon, in the assay with HCT-15 colon, with OVCAR-3 ovarian, in the assay with SNB-19 CNS, with M14 melanoma and in the assay with 786-0 renal was greater than 100 µM each time. The TGI in the assay with HCT-116 colon, with PC-3 prostate, in the assay with SK-MEL-28 melanoma, in the assay on SR leukemia, with RXF 393 renal and in the assay with UACC-257 melanoma was greater than 100 µM in each case. This molecule also displayed a TGI in the assay on NCI-H522 lung greater than 100 µM.

As to `Clc1ccccc1-c1nnc2c(-c3ccccc3)nc3ccccc3n12`, the TGI in the assay on NCI/ADR-RES ovarian, in the assay with OVCAR-5 ovarian, in the assay on SN12C renal, in the assay with OVCAR-4 ovarian, in the assay with NCI-H226 lung and in the assay with U251 CNS was greater than 100 µM throughout. Besides, the TGI in the assay on SW-620 colon, in the assay on HCT-15 colon, in the assay with OVCAR-3 ovarian, in the assay with SNB-19 CNS, in the assay on M14 melanoma and with 786-0 renal was greater than 100 µM in each case. The TGI in the assay on HCT-116 colon, in the assay with PC-3 prostate, with SK-MEL-28 melanoma, in the assay on SR leukemia, with RXF 393 renal and with UACC-257 melanoma was greater than 100 µM throughout.

Take `CC(=O)N1N=C(c2c(O)ccc3ccccc23)CC1c1ccc(Cl)cc1` (stereo unspecified): the TGI is 43.9 µM in the assay on NCI/ADR-RES ovarian; 58 µM in the assay on OVCAR-5 ovarian; 39.3 µM in the assay on SN12C renal; greater than 100 µM in the assay with OVCAR-4 ovarian; greater than 100 µM with NCI-H226 lung; 63.1 µM in the assay on U251 CNS. In addition, the TGI in the assay with CAKI-1 renal was greater than 100 µM; in the assay with SW-620 colon it was greater than 100 µM; in the assay with HCT-15 colon, greater than 100 µM; in the assay with OVCAR-3 ovarian, 32.1 µM; with M14 melanoma, 33.5 µM; in the assay with 786-0 renal, greater than 100 µM. In addition, the TGI is 28.4 µM with HCT-116 colon; 68.9 µM with PC-3 prostate; 74 µM in the assay with SK-MEL-28 melanoma; 28.3 µM with SR leukemia; 42.9 µM with RXF 393 renal; greater than 100 µM in the assay with UACC-257 melanoma. In the assay with NCI-H522 lung, this molecule yielded a TGI greater than 100 µM.

Consider `Nc1cccc(C#Cc2cccc(C#Cc3cccc(N)n3)n2)n1`, for which the TGI in the assay on NCI/ADR-RES ovarian, in the assay on OVCAR-5 ovarian, in the assay on SN12C renal, with OVCAR-4 ovarian, in the assay on NCI-H226 lung and with U251 CNS was greater than 100 µM in each case. Besides, the TGI in the assay on CAKI-1 renal, with SW-620 colon, in the assay on HCT-15 colon, in the assay with OVCAR-3 ovarian, in the assay with SNB-19 CNS and in the assay with M14 melanoma was greater than 100 µM in each case. Also, the TGI with 786-0 renal, in the assay on HCT-116 colon, with PC-3 prostate, with SR leukemia, with RXF 393 renal and with UACC-257 melanoma was greater than 100 µM each time. Moreover, in the assay on NCI-H522 lung, the TGI is greater than 100 µM.

As for `[C-]#[N+]C1(C(=O)OCC)CC1`, the TGI in the assay on NCI/ADR-RES ovarian, in the assay with OVCAR-5 ovarian, in the assay with SN12C renal, in the assay with OVCAR-4 ovarian, in the assay on NCI-H226 lung and with U251 CNS was greater than 100 µM throughout. Also, the TGI in the assay on SW-620 colon, with HCT-15 colon, in the assay with OVCAR-3 ovarian, in the assay on SNB-19 CNS, in the assay with M14 melanoma and in the assay with 786-0 renal was greater than 100 µM each time. Moreover, the TGI with HCT-116 colon, in the assay on PC-3 prostate, in the assay on SK-MEL-28 melanoma, in the assay on SR leukemia, in the assay on RXF 393 renal and in the assay with UACC-257 melanoma was greater than 100 µM in each case. In the assay with NCI-H522 lung, this molecule had a TGI greater than 100 µM.
